Data as given in US20230150981A1, “N-HETEROARYLALKYL-2-(HETEROCYCLYL AND HETEROCYCLYLMETHYL) ACETAMIDE DERIVATIVES AS SSTR4 AGONISTS” (Takeda Pharmaceutical Compnay Limited, priority 2020, published 2023).

Tests used:
SSTR1 = target: T1, SSTR1 (Homo sapiens, UniProt P30872); assay: SSTR1 I-125 somatostatin competition binding assay for selectivity versus SSTR1 (CHO-K1 membranes); conditions: competition with I-125 somatostatin, membranes from CHO-K1 overexpressing SSTR1; read-out: SSTR1 Binding pIC50 (converted)
T1 construct: purchased Perkin Elmer ES-520-M400UA; host or cells: CHO-K1 membranes
Procedure: SSTR1 I-125 Somatostatin Competition Binding Assay for Selectivity Versus SSTR1
Membranes from CHO-K1 cells overexpressing SSTR1 are purchased from Perkin Elmer (catalog number ES-520-M400UA). Test compounds are suspended in DMSO and then diluted in assay buffer (25 mM HEPES pH 7.4, 10 mM MgCl2, 1 mM CaCl2), 0.5% BSA) plus 0.4 nM I-125 labeled somatostatin (Perkin Elmer catalog number NEX389). Fifty μL of compound/I-125 somatostatin in assay buffer are added per well to 96-well poly-propylene plate. Then 10 μg of SSTR1 membranes in 50 μL assay buffer are added per well. The plate is incubated for 60 minutes at room temperature. FilterMat A filters (Perkin Elmer catalog number 1450-421) are pre-soaked in 0.5% PEI (Sigma catalog number P3143). The contents of the assay plate are transferred to filters with a TomTech harvester and washed 5 times with 20 mM HEPES, 100 mM NaCl. The filters are dried in a microwave oven then transferred to sample bag containing a scintillator sheet (Perkin Elmer catalog number 1450-441). The scintillator sheets are melted to the filters using a heat block. The filters are then read in a MicroBeta scintillation counter. Binding Ki curves are generated using Activity Base for Screening Data Management and the results are reported as pIC50.

SSTR4 [1] = target: T2, SSTR4 (Homo sapiens, UniProt P31391); assay: Inhibition of forskolin stimulated cAMP in CHO-K1 cells overexpressing SSTR4; assay type: cell-based; conditions: read-out: SSTR4 Activity pEC50 (converted)
T2 construct: host or cells: CHO-K1
Method in brief: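 CHO-K1 cells overexpressing SSTR4 treated 30 min at room temperature with compound in Krebs Ringer buffer containing 0.5% BSA, 300 μM IBMX and 350 nM forskolin. Intracellular cAMP measured by HTRF LANCE Ultra (665/615 nm); pEC50 values reported.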

SSTR4 [2] = target: T2, SSTR4; assay: SSTR4 I-125 somatostatin competition binding assay (CHO-K1 membranes); conditions: competition with I-125 somatostatin, membranes from CHO-K1 overexpressing SSTR4; read-out: SSTR4 Binding pIC50 (converted)
Procedure: SSTR4 I-125 Somatostatin Competition Binding Assay
Membranes from CHO-K1 cells overexpressing SSTR4 are purchased from Perkin Elmer (catalog number ES-524-M400UA). Test compounds are suspended in DMSO and then diluted in assay buffer (25 mM HEPES pH 7.4, 10 mM MgCl2, 1 mM CaCl2), 0.5% BSA) plus 0.2 nM I-125 labeled somatostatin (Perkin Elmer catalog number NEX389). Fifty μL of compound/I-125 somatostatin in assay buffer are added per well to 96-well poly-propylene plate. Then 1 μg of SSTR4 membranes in 50 μL assay buffer are added per well. The Plate is incubated for 60 minutes at room temperature. FilterMat A filters (Perkin Elmer catalog number 1450-421) are pre-soaked in 0.5% PEI (Sigma catalog number P3143). The contents of the assay plate are transferred to filters with a TomTech harvester and washed 5 times with 20 mM HEPES, 100 mM NaCl. The filters are dried in a microwave oven then transferred to sample bag containing a scintillator sheet (Perkin Elmer catalog number 1450-441). The scintillator sheets are melted to filters using a heat block. The filters are then read in a MicroBeta scintillation counter. Binding Ki curves are generated using Activity Base for Screening Data Management and the results are reported as pIC50.

T2 sequence (P31391 whole entry): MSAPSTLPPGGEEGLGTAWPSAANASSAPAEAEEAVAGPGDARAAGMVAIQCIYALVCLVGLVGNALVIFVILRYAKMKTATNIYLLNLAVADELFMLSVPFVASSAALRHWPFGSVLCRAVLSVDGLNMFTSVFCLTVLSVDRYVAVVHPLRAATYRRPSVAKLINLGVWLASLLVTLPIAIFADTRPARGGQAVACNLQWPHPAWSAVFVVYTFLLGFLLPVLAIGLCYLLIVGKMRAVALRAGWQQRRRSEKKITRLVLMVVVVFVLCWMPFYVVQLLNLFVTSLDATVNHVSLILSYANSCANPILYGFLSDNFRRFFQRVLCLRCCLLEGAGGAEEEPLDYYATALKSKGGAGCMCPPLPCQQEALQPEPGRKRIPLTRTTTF
T1 sequence (P30872 whole entry): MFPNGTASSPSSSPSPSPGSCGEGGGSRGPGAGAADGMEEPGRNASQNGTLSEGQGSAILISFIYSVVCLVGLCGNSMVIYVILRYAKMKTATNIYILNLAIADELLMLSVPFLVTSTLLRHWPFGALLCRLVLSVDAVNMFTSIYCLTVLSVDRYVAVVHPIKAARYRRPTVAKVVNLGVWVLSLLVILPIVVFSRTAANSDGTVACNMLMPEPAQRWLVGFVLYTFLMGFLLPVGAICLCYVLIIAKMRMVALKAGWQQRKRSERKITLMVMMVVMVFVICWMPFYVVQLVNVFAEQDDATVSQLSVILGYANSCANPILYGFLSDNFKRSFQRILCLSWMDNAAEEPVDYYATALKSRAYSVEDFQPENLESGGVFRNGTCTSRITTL

SMILES	IC50 (SSTR1) [µM]	EC50 (SSTR4 [1]) [µM]	IC50 (SSTR4 [2]) [µM]
Cc1cccc2c(C(C)(C)NC(=O)CC3CCCN3C)nn(C)c12 (stereo not drawn) [Example 1, N-(2-(1,7-dimethyl-1H-indazol-3-yl)propan-2-yl)-2-(1-methylpyrrolidin-2-yl)acetamide]	10	0.00631	0.0631
CN1CCCCC1CC(=O)NC(C)(C)c1nn(C)c2ccccc12 (stereo not drawn) [Example 2, N-(2-(1-methyl-1H-indazol-3-yl)propan-2-yl)-2-(1-methylpiperidin-2-yl)acetamide]	3.16	0.00631	0.0631
CN1CCC[C@@H]1CC(=O)NC(C)(C)c1nn(C)c2ccccc12 [Example 3, (R)-N-(2-(1-methyl-1H-indazol-3-yl)propan-2-yl)-2-(1-methylpyrrolidin-2-yl)acetamide]	5.01	0.0251	0.2
CN1CCC[C@H]1CC(=O)NC(C)(C)c1nn(C)c2ccccc12 [Example 4, (S)-N-(2-(1-methyl-1H-indazol-3-yl)propan-2-yl)-2-(1-methylpyrrolidin-2-yl)acetamide]	10	0.0251	0.158
CC(C)(NC(=O)CCN1CCCC1)c1nccc2ccccc12 [Example 5, N-(2-(isoquinolin-1-yl)propan-2-yl)-3-(pyrrolidin-1-yl)propanamide]	5.01	0.00398	0.0501
CN1CCCCC1CC(=O)NC(C)(C)c1nccc2ccccc12 (stereo not drawn) [Example 6, N-(2-(isoquinolin-1-yl)propan-2-yl)-2-(1-methylpiperidin-2-yl)acetamide]	2.51	0.00158	0.0251
Cc1cccc2c(C(C)(C)NC(=O)CC3CCCCN3C)nccc12 (stereo not drawn) [Example 7, N-(2-(5-methylisoquinolin-1-yl)propan-2-yl)-2-(1-methylpiperidin-2-yl)acetamide]	5.01	0.00398	0.0794
CN1CCCCC1CC(=O)NC(C)(C)c1cccc(Cl)c1 (stereo not drawn) [Example 11, N-(2-(3-chlorophenyl)propan-2-yl)-2-(1-methylpiperidin-2-yl)acetamide]	25.1	0.0398	0.2
CN1CCC[C@@H]1CC(=O)NC(C)(C)c1nccc2ccccc12 [Example 16, (R)-N-(2-(isoquinolin-1-yl)propan-2-yl)-2-(1-methylpyrrolidin-2-yl)acetamide]	3.16	0.0126	0.1
Cc1cccc2c(C(C)(C)NC(=O)C[C@H]3CCCN3C)nccc12 [Example 17, (R)-N-(2-(5-methylisoquinolin-1-yl)propan-2-yl)-2-(1-methylpyrrolidin-2-yl)acetamide]	5.01	0.00398	0.1
Cc1cccc2c(C(C)(C)NC(=O)C[C@@H]3CCCN3C)nccc12 [Example 18, (S)-N-(2-(5-methylisoquinolin-1-yl)propan-2-yl)-2-(1-methylpyrrolidin-2-yl)acetamide]	7.94	0.00794	0.1
Cc1cccc2c(C(C)(C)NC(=O)C[C@H]3CCCN3C)noc12 [Example 19, (R)-N-(2-(7-methylbenzo[d]isoxazol-3-yl)propan-2-yl)-2-(1-methylpyrrolidin-2-yl)acetamide]	10	0.0126	0.126
Cc1cccc2c(C(C)(C)NC(=O)C[C@@H]3CCCN3C)noc12 [Example 21, (S)-N-(2-(7-methylbenzo[d]isoxazol-3-yl)propan-2-yl)-2-(1-methylpyrrolidin-2-yl)acetamide]	25.1	0.0126	0.0794
Cc1cc2ccccc2c(C(C)(C)NC(=O)C[C@@H]2CCCN2C)n1 [Example 22, (S)-N-(2-(3-methylisoquinolin-1-yl)propan-2-yl)-2-(1-methylpyrrolidin-2-yl)acetamide]	2.51	0.00794	0.0631
CC(C)(NC(=O)C[C@@H]1CCCN1)c1nccc2ccccc12 [Example 23, (S)-N-(2-(isoquinolin-1-yl)propan-2-yl)-2-(pyrrolidin-2-yl)acetamide]	7.94	0.0251	1

Now from value to molecule:

IC50 (SSTR1) [µM]	EC50 (SSTR4 [1]) [µM]	IC50 (SSTR4 [2]) [µM]	SMILES
7.94	0.00631	0.02	O=C(CCN1CCCC1)N[C@H](c1cccc(Cl)c1)C(F)F (single isomer, unassigned) [Example 198]
5.01	0.002	0.0251	CC[C@@H](CN1CCC1)C(=O)NC(C)(C)c1ccccc1F (single isomer, unassigned) [Example 200]
25.1	0.0316	0.0631	O=C(CCN1CCC1)N[C@H](c1ccccc1)C(F)F (single isomer, unassigned) [Example 201]
2.51	0.00126	0.0251	C[C@H](CN1CCC1)C(=O)N[C@@H](CF)c1ccccc1 (single isomer, unassigned) [Example 205]
5.01	0.00158	0.0398	Cc1ccc(C(NC(=O)CCN2CCC2)C(F)(F)F)cc1 (single isomer, unassigned) [Example 207]
15.8	0.00316	0.0398	O=C(CCN1CCC1)NC(c1cccc(F)c1)C(F)(F)F (single isomer, unassigned) [Example 208]
20	0.00126	0.126	O=C(CCN1CCC1)NC(c1ccccc1F)C(F)(F)F (single isomer, unassigned) [Example 209]
3.98	0.01	0.0316	Cc1ccccc1C(NC(=O)CCN1CCC1)C(F)(F)F (single isomer, unassigned) [Example 210]
6.31	0.0126	0.2	CN1CCC[C@H]1CC(=O)NC(C)(C)c1nccc2ccccc12 [Example 24, (S)-N-(2-(isoquinolin-1-yl)propan-2-yl)-2-(1-methylpyrrolidin-2-yl)acetamide]
> 50.1	0.0316	0.501	CCN1CCCC1CC(=O)NC(C)(C)c1nccc2occc12 (stereo not drawn) [Example 27, 2-(1-ethylpyrrolidin-2-yl)-N-(2-(furo[3,2-c]pyridin-4-yl)propan-2-yl)acetamide]
15.8	0.02	0.251	CN1CCCC1CC(=O)NC(C)(C)COc1ncccc1C(F)(F)F (stereo not drawn) [Example 28, N-(2-methyl-1-((3-(trifluoromethyl)pyridin-2-yl)oxy)propan-2-yl)-2-(1-methylpyrrolidin-2-yl)acetamide]
31.6	0.0316	0.126	CN1CCCCC1CC(=O)NC(C)(C)c1ccc(Cl)cc1 (stereo not drawn) [Example 30, N-(2-(4-chlorophenyl)propan-2-yl)-2-(1-methylpiperidin-2-yl)acetamide]
> 50.1	0.1	0.316	CN1CCC[C@H]1CC(=O)NC(C)(C)c1nccc2occc12 [Example 34, (S)-N-(2-(furo[3,2-c]pyridin-4-yl)propan-2-yl)-2-(1-methylpyrrolidin-2-yl)acetamide]
12.6	0.0631	0.316	CN1CCC[C@H]1CC(=O)NC(C)(C)c1ccc(Cl)cc1 [Example 35, (S)-N-(2-(4-chlorophenyl)propan-2-yl)-2-(1-methylpyrrolidin-2-yl)acetamide]
25.1	0.0631	0.316	CN1CCC[C@@H]1CC(=O)NC(C)(C)c1cc(Cl)ccc1Cl [Example 38, (R)-N-(2-(2,5-dichlorophenyl)propan-2-yl)-2-(1-methylpyrrolidin-2-yl)acetamide]
